Biological target: CDK9 (Homo sapiens, UniProt P50750)
Experiment: DSF thermal shift
Type: binding

Chain of CDK9 (P50750 1-330): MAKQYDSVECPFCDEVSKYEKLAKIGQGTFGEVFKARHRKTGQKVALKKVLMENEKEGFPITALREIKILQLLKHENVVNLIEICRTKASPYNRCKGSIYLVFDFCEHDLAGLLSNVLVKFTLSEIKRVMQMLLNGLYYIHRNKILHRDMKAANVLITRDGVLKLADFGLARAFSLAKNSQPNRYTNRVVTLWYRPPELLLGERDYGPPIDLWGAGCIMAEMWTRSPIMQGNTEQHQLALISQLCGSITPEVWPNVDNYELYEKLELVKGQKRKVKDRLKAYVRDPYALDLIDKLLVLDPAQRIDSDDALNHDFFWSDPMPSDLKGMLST
Chain of CDK9 (O60563 1-259 partner): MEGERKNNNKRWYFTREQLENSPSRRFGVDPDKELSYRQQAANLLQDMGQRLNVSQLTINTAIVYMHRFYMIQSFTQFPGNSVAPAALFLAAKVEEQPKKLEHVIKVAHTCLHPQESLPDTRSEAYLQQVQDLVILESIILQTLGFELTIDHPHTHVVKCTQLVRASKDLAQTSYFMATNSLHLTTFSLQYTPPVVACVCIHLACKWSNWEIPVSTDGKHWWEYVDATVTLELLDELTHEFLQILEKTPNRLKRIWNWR

For `OC[C@H]1O[C@@H](n2cnc3cc(Cl)c(Cl)cc32)[C@H](O)[C@@H]1O` [DRB], the “DSF thermal shift (no Kd)” value was “we tested the ability of known CDK9 inhibitors (DRB, CAN508, (S)-CR8, Roscovitine, Staurosporine”.

— article PMC3355656 (2012)
